A short description of this data set: loss of linezolid in IV aqueous solution during and following terminal moist heat sterilization in the container. Type of data set: physicochemical. The following applies: container-solution contact surface made of at least 50% polyolefin. As to the method: The linezolid IV solution is formulated by heating water for injection from about 50 to about 65°. Next the sodium citrate, citric acid and dextrose are added and stirred until dissolved. An aqueous slurry of linezolid is added to the previous mixture and stirred until dissolved. The mixture is cooled to 25° with stirring. The pH is measured and adjusted if necessary. Last the mixture is brought to volume, if necessary, with water for injection. The mixture is filtered, filled into infusion containers, over wrapped and terminally moist heat sterilized.
When terminally moist heat sterilizing an IV solution, the solution is placed in the container in which (1) it will be stored and then transferred to the container from which it will ultimately be administered, or (2) stored and then ultimately administered from the same container to deliver the IV solution to the patient. Therefore, it is imperative that the pharmaceutically active ingredient (oxazolidinone, linezolid) not react with the container in which it is to be terminally moist heat sterilized and stored/stored-administered.
What is essential is that the container-solution contact surface material be primarily a polyolefin; the remainder of the container can be made from polyolefin or other materials. It is preferred that the container-solution contact surface is made of from about 50 to about 100% polyolefin. […]

As to `CC(=O)NC[C@H]1CN(c2ccc(N3CCOCC3)c(F)c2)C(=O)O1` [linezolid, (S)-N-[[3-[3-fluoro-4-(4-morpholinyl)phenyl]-2-oxo-5-oxazolidinyl]methyl]acetamide], the “loss of linezolid during and following terminal moist heat sterilization” value is “significantly much less loss”.

These data come from patent publication US20050075619A1, “Container for linezolid intravenous solution” (priority 2000, published 2005).
